Measured values as given in the NIST ThermoML archive (doi:10.1021/je060142u).
Numbers after ± are expanded uncertainties.

Assay: activity coefficient (dimensionless); of the first substance listed, at infinite dilution; xn = mol fraction of the nth substance listed
Settings: 101 kPa, Liquid, Chromatography, x1 = 0

Row | SMILES | activity coefficient (303.15 K) | activity coefficient (313.15 K) | activity coefficient (323.15 K) | activity coefficient (333.15 K) | activity coefficient (343.15 K)
1 | Cc1ccccc1C [1,2-dimethylbenzene] + CCCCn1cc[n+](C)c1.F[B-](F)(F)F | 4.2 ± 0.36 | 4.18 ± 0.36 | 4.16 ± 0.36 | 4.16 ± 0.36 | 4.14 ± 0.36
2 | C=Cc1ccccc1 [styrene] + CCCCn1cc[n+](C)c1.F[B-](F)(F)F | 2.29 ± 0.2 | 2.29 ± 0.2 | 2.34 ± 0.2 | 2.41 ± 0.21 | 2.48 ± 0.21
3 | Cc1ccc(C)cc1 [1,4-dimethylbenzene] + CCCCn1cc[n+](C)c1.F[B-](F)(F)F | 4.97 ± 0.43 | 5.15 ± 0.44 | 5.28 ± 0.46 | 5.33 ± 0.46 | 5.47 ± 0.47
4 | C1CCCCC1 [cyclohexane] + CCCCn1cc[n+](C)c1.F[B-](F)(F)F | 32.4 ± 2.8 | 30.2 ± 2.6 | 28.3 ± 2.5 | 26.9 ± 2.3 | 24.6 ± 2.1
5 | CCCCCCCC [octane] + CCCCn1cc[n+](C)c1.F[B-](F)(F)F | 139 ± 12 | 136 ± 12 | 127 ± 11 | 119 ± 10 | 111 ± 9.6
6 | CCCCCCCCC [nonane] + CCCCn1cc[n+](C)c1.F[B-](F)(F)F | 224 ± 20 | 193 ± 17 | 187 ± 16 | 179 ± 16 | 170 ± 15
7 | Cc1ccccc1 [toluene] + CCCCn1cc[n+](C)c1.F[B-](F)(F)F | 2.91 ± 0.25 | 2.94 ± 0.25 | 2.95 ± 0.25 | 2.99 ± 0.26 | 3.03 ± 0.26
8 | C1=CCCCC1 [cyclohexene] + CCCCn1cc[n+](C)c1.F[B-](F)(F)F | 14.1 ± 1.2 | 13.5 ± 1.2 | 12.9 ± 1.1 | 12.4 ± 1.1 | 11.9 ± 1
9 | CC(C)CC(C)(C)C [2,2,4-trimethylpentane] + CCCCn1cc[n+](C)c1.F[B-](F)(F)F | 92.7 ± 8 | 88.6 ± 7.7 | 83.8 ± 7.3 | 79.5 ± 6.9 | 75.5 ± 6.5
10 | CCc1ccccc1 [ethylbenzene] + CCCCn1cc[n+](C)c1.F[B-](F)(F)F | 5.61 ± 0.48 | 5.54 ± 0.48 | 5.49 ± 0.47 | 5.42 ± 0.47 | 5.37 ± 0.46
11 | CCCCC [pentane] + CCCCn1cc[n+](C)c1.F[B-](F)(F)F | 40.7 ± 3.5 | 39.7 ± 3.4 | 38.1 ± 3.3 | 36.3 ± 3.1 | 35.8 ± 3.1
12 | c1ccccc1 [benzene] + CCCCn1cc[n+](C)c1.F[B-](F)(F)F | 1.74 ± 0.15 | 1.76 ± 0.15 | 1.77 ± 0.15 | 1.8 ± 0.15 | 1.83 ± 0.16
13 | Cc1cccc(C)c1 [1,3-dimethylbenzene] + CCCCn1cc[n+](C)c1.F[B-](F)(F)F | 5.25 ± 0.45 | 5.24 ± 0.45 | 5.23 ± 0.45 | 5.23 ± 0.45 | 5.22 ± 0.45
14 | CCCCCCC [heptane] + CCCCn1cc[n+](C)c1.F[B-](F)(F)F | 92.5 ± 8 | 86.7 ± 7.5 | 81.7 ± 7.1 | 78.9 ± 6.8 | 71.5 ± 6.2
15 | CCCCCCCCCC [decane] + CCCCn1cc[n+](C)c1.F[B-](F)(F)F | 414 ± 36 | 335 ± 29 | 320 ± 28 | 296 ± 26 | 279 ± 24
16 | CC1CCCCC1 [methylcyclohexane] + CCCCn1cc[n+](C)c1.F[B-](F)(F)F | 48.7 ± 4.2 | 45.6 ± 3.9 | 42.4 ± 3.7 | 39.8 ± 3.5 | 37.3 ± 3.2
17 | CCCCCC [hexane] + CCCCn1cc[n+](C)c1.F[B-](F)(F)F | 60.8 ± 5.3 | 57.5 ± 5 | 54.2 ± 4.7 | 50.5 ± 4.4 | 47 ± 4.1
